Experiments:
SW620/AD300 [1] = assay: Cytotoxicity against multidrug resistant human SW620/AD300 cells assessed as survival rate at 4 uM measured after 72 hrs by MTT assay relative to control; assay type: functional; settings: read-out: Survival
SW620/AD300 [2] = assay: Reversal of paclitaxel resistance in human SW620/AD300 cells assessed as reversal fold by measuring ratio of paclitaxel IC50 to paclitaxel IC50 in presence of test compound incubated for 72 hrs by MTT assay; assay type: functional
HEK293 [3] = assay: Cytotoxicity against HEK293 cells harbouring ABCB1 measured after 72 hrs by MTT assay; assay type: functional, cell-based; settings: Homo sapiens, HEK293, 72 h
SW-620 [4] = assay: Reversal of paclitaxel resistance in human SW620 cells assessed as reversal fold by measuring ratio of paclitaxel IC50 to paclitaxel IC50 in presence of test compound at 4 uM incubated for 72 hrs by MTT assay; assay type: functional
SW620/AD300 [5] = assay: Cytotoxicity against multidrug resistant human SW620/AD300 cells measured after 72 hrs by MTT assay; assay type: functional, cell-based; settings: SW620/AD300, 72 h
KB-C2 = assay: Cytotoxicity against human KB-C2 cells measured after 72 hrs by MTT assay; assay type: functional, cell-based; settings: KB-C2, 72 h
SW-620 [6] = assay: Cytotoxicity against human SW620 cells measured after 72 hrs by MTT assay; assay type: functional, cell-based; settings: SW-620, 72 h
HEK293 [7] = assay: Cytotoxicity against HEK293 cells transfected with pcDNA3.1 measured after 72 hrs by MTT assay; assay type: functional, cell-based; settings: Homo sapiens, HEK293, 72 h
KB 3-1 = assay: Cytotoxicity against human KB 3-1 cells measured after 72 hrs by MTT assay; assay type: functional, cell-based; settings: KB 3-1, 72 h

SMILES	viability at 4 µM (SW620/AD300 [1]) [%]	Ratio IC50 (SW620/AD300 [2])	further results
O=c1c2c([nH]c3ncnn13)CSC2	97.7	8	
O=c1c2c([nH]c3ncnn13)CCC2	96.2	13.94	
COC(=O)c1nc2[nH]c3c(c(=O)n2n1)CCC3	94.7	20.57	
O=c1c2c([nH]c3ncnn13)COC2	98	6.75	
Cc1cc(=O)n2nc(SCc3csc4ccc(Cl)cc34)nc2[nH]1	94.6	18	
Cc1cc(=O)n2nc(SCc3ccc(Br)cc3)nc2[nH]1	94.9	10.29	
C#CCSc1nc2[nH]c(C)cc(=O)n2n1	97.2	4.6	
Cc1cc(=O)n2ncnc2[nH]1	97.6	5.4	
CCCCCc1c(C)[nH]c2ncnn2c1=O	98.6	1	
C#CCSc1nc2[nH]c3c(c(=O)n2n1)CCC3	96.9	24	
Cc1cc(=O)n2nc(SCc3ccccc3)nc2[nH]1	95	10.8	
CCc1cc(=O)n2ncnc2[nH]1	95.9	1.83	
CCOC(=O)CCc1c(C)[nH]c2ncnn2c1=O	94.2	1.03	
Cc1cc(=O)n2nc(SCC3CCCCC3)nc2[nH]1	92.6	6	
O=c1c2c([nH]c3nc(SCc4ccccc4)nn13)CCC2	94.7	25.41	
Cc1cc(=O)n2nc(SCc3ccc(F)cc3)nc2[nH]1	99.4	14.9	
Cc1cc(=O)n2nc(SCc3nc4ccccc4[nH]3)nc2[nH]1	96.8	44.54	
COc1ccc(CSc2nc3[nH]c(C)cc(=O)n3n2)cc1	93.6	33.49	
Cc1cc(=O)n2nc(SCc3nc4ccccc4s3)nc2[nH]1	97.2	60.85	
Cc1cc(=O)n2c(C#N)c(C#N)nc2[nH]1	97.5	1.38	

SMILES	viability at 4 µM (SW620/AD300 [1]) [%]	Ratio IC50 (SW620/AD300 [2])	further results
Cc1[nH]c2ncnn2c(=O)c1C	93.8	4.36	
Cc1cc(=O)n2nc(SCc3ccc(C(F)(F)F)cc3)nc2[nH]1	97.6	4.08	
O=c1cc(C(F)F)[nH]c2ncnn12	92.4	1.06	
Cc1cc(=O)n2nc(SCc3ccc(Cl)cc3)nc2[nH]1	94.5	13.94	
Cc1cc(=O)n2nc(SCc3cc(=O)oc4c3ccc3ccccc34)nc2[nH]1	97.1	57.6	
O=c1c2c([nH]c3ncnn13)CCCCC2	95.3	3.57	
CC(C)c1cc(=O)n2ncnc2[nH]1	95.7	1.39	
Cc1cc(=O)n2nc(SCc3ccc(Cl)c(F)c3)nc2[nH]1	97.6	18	
Cc1cc(=O)n2nccc2[nH]1	93.9	2.81	
Cc1cc(=O)n2nc(SCc3cccc4ccccc34)nc2[nH]1	97.8	24.27	
O=c1c2c([nH]c3nc(SCc4csc5ccc(Cl)cc45)nn13)CCC2	98.8	56.1	
CC(=O)O[C@H]1C(=O)[C@@]2(C)[C@H]([C@H](OC(=O)c3ccccc3)[C@]3(O)C[C@H](OC(=O)[C@H](O)[C@@H](NC(=O)c4ccccc4)c4ccccc4)C(C)=C1C3(C)C)[C@]1(OC(C)=O)CO[C@@H]1C[C@@H]2O [PACLITAXEL]			IC50 (HEK293 [3]): 0.106 µM; Ratio IC50 (SW-620 [4]): 1.03; IC50 (SW620/AD300 [5]): 4.32 µM; IC50 (KB-C2): 2.09 µM; IC50 (SW-620 [6]): 0.00655 µM; IC50 (HEK293 [7]): 0.00208 µM; IC50 (KB 3-1): 0.00432 µM
O=c1cc(C2CC2)[nH]c2ncnn12	92.5	1.36	
Cc1cc(=O)n2nc(SCc3ccc([N+](=O)[O-])cc3)nc2[nH]1	93.2	7.08	
O=c1c2c([nH]c3ncnn13)CCCC2	94.7	6.45	
O=c1cc(-c2ccccc2)[nH]c2ncnn12	99	1.03	
COC(=O)c1nc2[nH]c(C)cc(=O)n2n1	97.9	4.5	
O=c1c2c([nH]c3nc(SCc4nc5ccccc5[nH]4)nn13)CCC2	94.7	69.68	
Cc1cc(=O)n2c(nc3ccccc32)[nH]1	96.2	1.09	
